Consider five molecules from article PMC3847553, “Kinetic properties of “dual” orexin receptor antagonists at OX1R and OX2R orexin receptors” (Frontiers in Neuroscience, 2013).

The target in one assay is T1, rat OX1R (Rattus norvegicus, UniProt P56718).
T1 construct: expressed in transfected cells; host or cells: HEK; cells from GNF, San Diego
T1 sequence (P56718 1-416): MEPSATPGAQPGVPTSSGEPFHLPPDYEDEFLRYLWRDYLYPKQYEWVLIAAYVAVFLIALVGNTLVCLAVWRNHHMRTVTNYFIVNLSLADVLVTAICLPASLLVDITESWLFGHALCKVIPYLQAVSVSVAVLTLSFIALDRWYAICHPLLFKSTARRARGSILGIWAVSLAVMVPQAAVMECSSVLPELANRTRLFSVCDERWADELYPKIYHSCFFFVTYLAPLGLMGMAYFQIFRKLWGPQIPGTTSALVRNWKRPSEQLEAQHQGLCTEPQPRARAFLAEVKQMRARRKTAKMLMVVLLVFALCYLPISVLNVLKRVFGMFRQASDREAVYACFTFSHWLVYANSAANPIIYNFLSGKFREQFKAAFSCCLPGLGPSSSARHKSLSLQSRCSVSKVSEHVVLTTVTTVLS
Put plainly: FLIPR orexin A-stimulated calcium accumulation, rat OX1R. It counts as cell-based. The following applies: HEK cells. The protocol:
(§1) Chinese Hamster Ovary (CHO) cells stably transfected with the cDNA encoding the human OX1R (CHO-hOX1) or OX2R (CHO-hOX2) were used (kindly provided by T. Cremer and Dr. S. Geisse, NIBR Basel, Switzerland). For measurements of calcium accumulation using FLIPR® (Fluorescent Imaging Plate Reader) assay, CHO or Human Embryonic Kidney (HEK) cells stably expressing mouse, rat or human OX1R or OX2R (kindly provided by Dr. A. Chen, GNF, San Diego, CA, USA) were used. All cells were cultured in 1:1 Dulbecco's Modified Eagle's Medium (DMEM)/Ham's F12 Nutrients Mixture (F12) supplemented with 10% (v/v) fetal bovine serum (FBS), 100 μ/ml (100 g/ml)/streptomycin (100 μg/ml), Fungizone (250 μg/ml), and Geneticin (G418, 50 mg/ml). Cells were maintained in a humidified incubator at 37°C in 5% CO2. For crude cell membrane preparations, cells were washed and harvested in 10 mM HEPES (pH 7.5), and centrifuged at 4°C for 5 min at 2500 g. The cell pellet was either stored at −80°C or used directly.
(§2) Cells expressing either human, rat or mouse OX1R or OX2R were seeded at 8,000 cells/well in black 384 well clear bottom plates and incubated overnight at 37°C. The following day, medium was discarded and cells loaded with 50 μ l of 1 mM Fluo-4 AM (Invitrogen F14202) in dimethyl sulfoxide in working buffer (Hanks' balanced salt solution, 10 mM HEPES) and incubated for 60 min at 37°C. The loading buffer was removed and cells were washed with 100 μ l working buffer containing […], 0.1% BSA, and 2.5 mM Probenecid (pH 7.4) to remove the excess Fluo-4 AM. […] The assay plate was then transferred to the Molecular Devices-FLIPR384. The baseline calcium signal was recorded for 10 s, then the antagonist of interest was injected (10 μl at 3 times the final concentration) and the calcium signal recorded every second for 1 min, then every 2 s 40 times. Plates were then incubated at room temperature for 30 min, 1, 2, or 4 h.

In a further assay the target is T2, rat OX2R (Rattus norvegicus, UniProt P56719).
T2 sequence (P56719 1-460): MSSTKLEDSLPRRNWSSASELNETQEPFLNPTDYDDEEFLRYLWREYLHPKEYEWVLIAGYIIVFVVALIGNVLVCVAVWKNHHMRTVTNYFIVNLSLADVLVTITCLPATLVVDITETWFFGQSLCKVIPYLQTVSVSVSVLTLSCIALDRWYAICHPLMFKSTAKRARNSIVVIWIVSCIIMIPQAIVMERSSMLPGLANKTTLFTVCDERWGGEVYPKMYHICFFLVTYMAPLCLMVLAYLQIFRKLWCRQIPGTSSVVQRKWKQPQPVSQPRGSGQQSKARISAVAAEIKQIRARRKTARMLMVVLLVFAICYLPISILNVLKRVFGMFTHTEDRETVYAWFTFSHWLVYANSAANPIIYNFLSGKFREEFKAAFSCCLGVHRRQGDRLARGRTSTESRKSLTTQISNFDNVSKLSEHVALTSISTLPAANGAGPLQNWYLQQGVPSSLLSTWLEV
The assay can be described thus: FLIPR orexin A-stimulated calcium accumulation, rat OX2R. The following applies: HEK cells. The assay is classed as cell-based.
Excerpt: as §1, with “All cells were cultured in 1:1 Dulbecco's Modified Eagle's Medium (DMEM)/Ham's F12 Nutrients Mixture (F12) supplemented with 10% (v/v) fetal bovine serum (FBS), 100 μ/ml (100 g/ml)/streptomycin (100 μg/ml), Fungizone (250 μg/ml), and Geneticin (G418, 50 mg/ml).” left out
as §2, with “times.” for “times. Plates were then incubated at room temperature for 30 min, 1, 2, or 4 h.”

The subject of a further assay is REM sleep. Details: method as in Bettica et al., 2012b, 2012c. The following applies: 10, 30, or 60 mg; healthy volunteers and insomnia patients; ref Bettica et al., 2012b, 2012c; cited from earlier work.
[1] abbreviates: antagonist incubation 30 min, read-out: pKi (converted).
Where [2] appears, read: antagonist incubation 1 h, read-out: pKi (converted).
[3] abbreviates: antagonist incubation 2 h, read-out: pKi (converted).
The mark [4] stands for this setting: antagonist incubation 4 h, read-out: pKi (converted).

Structures are written as SMILES. Like-named read-outs stand apart in the source and are kept apart here.

As for `CNC(=O)[C@@H](c1ccccc1)N1CCc2cc(OC)c(OC)cc2[C@@H]1CCc1ccc(C(F)(F)F)cc1` [Almorexant], the Ki at rat OX1R (antagonist incubation 30 min) was 12.6 nM; on rat OX1R (antagonist incubation 1 h) it was 12.6 nM; at rat OX1R (antagonist incubation 2 h), 11.2 nM; at rat OX1R (antagonist incubation 4 h), 17.4 nM; on rat OX2R (setting [1]), 5.62 nM; at rat OX2R (setting [2]) it was 2.24 nM. For the same molecule, the values for the Ki on rat OX2R (setting [3]) and on rat OX2R (setting [4]) were 1.02 nM and 0.661 nM, respectively.
In the case of `Cc1ccc(-n2nccn2)c(C(=O)N2CCN(c3nc4cc(Cl)ccc4o3)CC[C@H]2C)c1` [Suvorexant], the Ki was 1.95 nM at rat OX2R (pKi, antagonist incubation 30 min); 0.871 nM at rat OX2R (pKi, antagonist incubation 1 h); 0.603 nM at rat OX2R (pKi, antagonist incubation 2 h); 0.427 nM at rat OX2R (pKi, antagonist incubation 4 h).
`Cc1ccc(-c2ncccn2)c(C(=O)N2C[C@H](COc3ccc(F)cn3)CC[C@H]2C)c1` [Filorexant]: the Ki at rat OX1R (antagonist incubation 30 min) is 0.759 nM; on rat OX1R (antagonist incubation 1 h), 0.617 nM; at rat OX1R (antagonist incubation 2 h), 0.501 nM; at rat OX1R (antagonist incubation 4 h), 1.2 nM; at rat OX2R (setting [1]), 0.741 nM; at rat OX2R (setting [2]), 0.417 nM. In addition, the Ki is 0.251 nM on rat OX2R (setting [3]) and 0.178 nM at rat OX2R (setting [4]).
Turning to `Cc1nc(C(=O)N2CCCC[C@H]2CNC(=O)c2cccc3occc23)c(-c2ccc(F)cc2)s1` [SB-649868], the Ki on rat OX1R (antagonist incubation 30 min) is 0.257 nM; at rat OX1R (antagonist incubation 1 h), 0.126 nM; at rat OX1R (antagonist incubation 2 h) it was 0.0676 nM; on rat OX1R (antagonist incubation 4 h), 0.0724 nM; on rat OX2R (setting [1]), 0.457 nM; at rat OX2R (setting [2]), 0.316 nM. Further, the Ki at rat OX2R (setting [3]) is 0.155 nM; at rat OX2R (setting [4]), 0.141 nM. The REM duration result in the assay on REM sleep is given as “increases REM duration”. In addition, in the assay with REM sleep, the “latency to REM” value is given as “decreases latency to REM”.
Turning to `COc1ccnc(N2CCC3(CCCN(Cc4c[nH]c5ccccc45)C3=O)CC2)n1` [IPSU, 2-((1H-Indol-3-yl)methyl)-9-(4-methoxypyrimidin-2-yl)-2,9-diazaspiro[5.5]undecan-1-one], the Ki at rat OX1R (antagonist incubation 30 min) was 224 nM; at rat OX1R (antagonist incubation 1 h) it was 240 nM; on rat OX1R (antagonist incubation 2 h), 275 nM; on rat OX1R (antagonist incubation 4 h) it was 562 nM; at rat OX2R (setting [1]), 23.4 nM; on rat OX2R (setting [2]), 28.2 nM. Further, the figures for the Ki at rat OX2R (setting [3]) and at rat OX2R (setting [4]) were 24 nM and 28.2 nM, respectively.
